Reference: patent US20230331707A1, “PROGRAMMED CELL NECROSIS INHIBITOR, PREPARATION METHOD THEREFOR, AND USE THEREOF” (Shanghai Institute of Organic Chemistry, Chinese Academy of …, priority 2020, published 2023)
Where two headings read alike, the source gives them in different places.

What was measured:
[1] = test system: phosphorylation of RIPK1 and phosphorylation of downstream protein MLKL; test: Programmed necrosis pathway signals by western blot in FADD-deficient Jurkat cells; assay type: cell-based, human; settings: 1.6 nM
Experimental: In order to verify whether the compounds of the present invention can inhibit programmed cell necrosis by inhibiting the activity of RIPK1, and to detect the changes in the signal of the programmed necrosis pathway. FADD-deficient Jurkat or L929 cells treated with the compound of the present invention were used, and TNFα was added to induce programmed necrosis. Then the cells were collected and phosphorylation of RIPK1 and oligomerization of MLKL were detected using western blot.
Methods: FADD-deficient Jurkat cells or L929 cells were cultured in vitro. After growing to the logarithmic growth phase, the cells were collected, centrifuged at 1000 rpm for 5 min, the supernatant was discarded, and the cell concentration was adjusted to 1×10^6/mL. In the 12-well cell culture plate, each well was added with 1 ml of cells, and 0.2 μL of DMSO solution with a concentration of 50 mM drug or pure DMSO control, and pretreated for 1 h. 0.5 μL of TNF α (PBS solution) with a concentration of 100 μg/ml was added to each stimulated group. […] The BCA protein quantification kit was used to detect the protein content of each group, and PIPA lysis buffer was used to adjust the protein amount to make the final volume being 100 μL. […] The resulting sample was incubated with ECL luminescent solution and the luminescent signal was detected.

FADD−/− Jurkat cells [2] = test: Inhibition of TNF-induced programmed necrosis of FADD deficient Jurkat cells (Cell Titer-Glo viability); assay type: cell-based; settings: at 1000-fold effective inhibitory concentration (1 μM); FADD-deficient Jurkat cells or L929 cells
L929 cells = test: Inhibition of TNF-induced programmed necrosis of L929 cells (Cell Titer-Glo viability); assay type: cell-based, mouse
Method in brief: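 Mouse L929 fibroblasts were diluted to 6.25×10^4/ml, plated at 40 μl per well in 384-well plates, and incubated 12 hours at 37° C., 5% CO2. Compounds were added, with SM164 (500 nM) for the combination arm, and pretreated 1 h before TNFα (500 ng/mL). After 14 h, viability was read by Cell Titer-Glo luminescence against unstimulated DMSO controls, and EC50 values were fitted in Prism Graphpad.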

FADD−/− Jurkat cells [3] = test: Inhibition of TNF-induced programmed necrosis of FADD deficient Jurkat cells (Cell Titer-Glo viability); assay type: cell-based
Method in brief: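 FADD-deficient human Jurkat T leukemia cells in log phase were adjusted to 2.5×10^5/mL and plated at 40 μl per well in 384-well plates. Compounds were added, with SM164 (50 nM) where used, for a 1 h pretreatment at 37° C. TNFα (50 ng/mL) was then added, and cells were incubated 14 h at 37° C, 5% CO2. Viability was read as ATP luminescence with Cell Titer-Glo after 30 min at room temperature, with unstimulated DMSO wells set as 100%. EC50 values were calculated in Prism Graphpad.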

Cn1ncc(C(=O)NCc2ccc(-n3cnc4c(N)ncnc43)cc2)c1Cc1ccccc1 [QY-10-40]
inhibition of phosphorylation of RIPK1 and of downstream protein MLKL [1]: effectively inhibit | cytotoxicity (FADD−/− Jurkat cells [2]): does not exhibit any cytotoxicity | concentration that essentially completely inhibits TNFα-induced programmed necrosis (L929 cells; L929 cells): above 1 nM | EC50 (L929 cells; L929 cells, stimulated with TNFα + SM164, read-out: EC50 (μM) L929 cells (mouse) TNFα + SM164): 0.00145 µM | EC50 (L929 cells; L929 cells, stimulated with TNFα alone, read-out: EC50 (μM) L929 cells (mouse) TNFα): 0.00048 µM | inhibition of programmed necrosis (in words) (L929 cells; mouse-derived L929 cells): excellently inhibit the occurrence of programmed necrosis | concentration that essentially completely inhibits TNFα-induced programmed necrosis (FADD−/− Jurkat cells [3]; FADD-deficient Jurkat cells): above 1 nM | EC50 (FADD−/− Jurkat cells [3]; FADD−/− Jurkat cells, stimulated with TNFα + SM164, read-out: EC50 (μM) FADD−/− Jurkat cells (human) TNFα + SM164): 0.06 nM | EC50 (FADD−/− Jurkat cells [3]; Homo sapiens, Jurkat, read-out: EC50 (μM) FADD−/− Jurkat cells (human) TNFα): 0.001 nM | activity of inhibition of programmed necrosis compared with GSK2982772 (FADD−/− Jurkat cells [3]; human FADD-deficient Jurkat cells, TNFα alone or in combination with SM164): stronger activity
